Experiment: refractive index (other wavelength) (dimensionless)
Settings: 85 kPa, Liquid, Wavelength=632.8 nm, Minimum Deviation

CCCCCCCC[n+]1ccn(C)c1.F[B-](F)(F)F [1-methyl-3-octylimidazolium tetrafluoroborate]
Settings	refractive index
288.81 K	1.4343
290.85 K	1.4338
292.91 K	1.4332
294.95 K	1.4327
297 K	1.4321
297.74 K	1.4319
299.06 K	1.4316
299.31 K	1.4315
300.78 K	1.4312
301.11 K	1.431
302.3 K	1.4307
303.2 K	1.4304
303.84 K	1.4303
305.32 K	1.4299
306.84 K	1.4295
308.35 K	1.429

CCCCCCCO [heptan-1-ol]
Settings	refractive index
297.43 K	1.4217
298.87 K	1.4211
300.46 K	1.4205
301.93 K	1.4199
303.44 K	1.4193
305.08 K	1.4187
306.72 K	1.418
308.35 K	1.4174

CCCC(C)O (stereo not given) [pentan-2-ol]
Settings	refractive index
289.22 K	1.407
292.33 K	1.4058
295.95 K	1.4042
299.54 K	1.4027
302.62 K	1.4013
306.2 K	1.3997
